# In ChEMBL document CHEMBL3885861, “Open TG-GATES”:
# Organism: Rattus norvegicus
# Assay: Open TG-GATES - Regimen: Single
# Type: toxicity, organism-based, Sprague-Dawley
# Design: regimen Single, gender Male, age 6 weeks
# Details: in vivo, po, route gavage; for APTT / Bas / Eos / Fbg / Hb / Lym / MCH / MCHC / MCV / Mono / RBC / Ret / WBC: tissue Blood; for KIDNEY_L / KIDNEY_R / KIDNEY_TOTAL: tissue Kidney; for LIVER: tissue Liver; for ALP / ALT / AST / CRE / Ca / Cl / DBIL / GLC / IP / K / LDH / Na / PL / RALB / TBIL / TC / TG / TP / gamma-GTP: tissue Plasma
# [1] = 0 mg/kg, 3 h, dose level Control
# [2] = 0 mg/kg, 6 h, dose level Control
# [3] = 0 mg/kg, 9 h, dose level Control
# [4] = 0 mg/kg, 24 h, dose level Control
compound,measurement,setting,value
O=C1CN(/N=C/c2ccc(-c3ccc([N+](=O)[O-])cc3)o2)C(O)=N1 [DANTROLENE],TERMINAL_BW,[1],200.3 g
same,APTT,[1],16.2 s
same,Bas,[1],0%
same,Eos,[1],1%
same,Fbg,[1],209.6 mg/dL
same,Hb,[1],13.4 g/dL
same,Lym,[1],82.4%
same,MCH,[1],22.9 pg
same,MCHC,[1],34.6%
same,MCV,[1],66.2 fL
same,Mono,[1],5.6%
same,RBC,[1],586.4 x10_4/ul
same,Ret,[1],10.7%
same,WBC,[1],134.1 x10_2/uL
same,KIDNEY_L,[1],1 g
same,KIDNEY_R,[1],1 g
same,KIDNEY_TOTAL,[1],1.9 g
same,LIVER,[1],9.3 g
same,ALP,[1],876.8 IU/L
same,ALT,[1],36.2 IU/L
same,AST,[1],69.2 IU/L
same,CRE,[1],0.5 mg/dL
same,Ca,[1],10.6 mg/dL
same,Cl,[1],103.8 meq/L
same,DBIL,[1],0.058 mg/dL
same,GLC,[1],194.2 mg/dL
same,IP,[1],8.7 mg/dL
same,K,[1],4.7 meq/L
same,LDH,[1],92.8 IU/L
same,Na,[1],139.6 meq/L
same,PL,[1],134.8 mg/dL
same,RALB,[1],3.6 g/dL
same,TBIL,[1],0.3 mg/dL
same,TC,[1],75 mg/dL
same,TG,[1],47 mg/dL
same,TP,[1],5.3 g/dL
same,gamma-GTP,[1],2.2 IU/L
same,TERMINAL_BW,[2],201.9 g
same,APTT,[2],16.6 s
same,Bas,[2],0%
same,Eos,[2],1%
same,Fbg,[2],205 mg/dL
same,Hb,[2],13.3 g/dL
same,Lym,[2],77.4%
same,MCH,[2],22.6 pg
same,MCHC,[2],34.6%
same,MCV,[2],65.4 fL
same,Mono,[2],9.2%
same,RBC,[2],588 x10_4/ul
same,Ret,[2],13.2%
same,WBC,[2],107.2 x10_2/uL
same,KIDNEY_L,[2],1 g
same,KIDNEY_R,[2],0.9 g
same,KIDNEY_TOTAL,[2],1.9 g
same,LIVER,[2],9.3 g
same,ALP,[2],689.6 IU/L
same,ALT,[2],32.6 IU/L
same,AST,[2],59.6 IU/L
same,CRE,[2],0.5 mg/dL
same,Ca,[2],10.5 mg/dL
same,Cl,[2],104.4 meq/L
same,DBIL,[2],0.064 mg/dL
same,GLC,[2],196.4 mg/dL
same,IP,[2],9.5 mg/dL
same,K,[2],4.7 meq/L
same,LDH,[2],82.2 IU/L
same,Na,[2],140 meq/L
same,PL,[2],135.2 mg/dL
same,RALB,[2],3.5 g/dL
same,TBIL,[2],0.3 mg/dL
same,TC,[2],79.8 mg/dL
same,TG,[2],58.2 mg/dL
same,TP,[2],5.3 g/dL
same,gamma-GTP,[2],1.2 IU/L
same,TERMINAL_BW,[3],195.9 g
same,APTT,[3],17.1 s
same,Bas,[3],0%
same,Eos,[3],1%
same,Fbg,[3],200.6 mg/dL
same,Hb,[3],13 g/dL
same,Lym,[3],76.4%
same,MCH,[3],21.5 pg
same,MCHC,[3],33.1%
same,MCV,[3],64.9 fL
same,Mono,[3],9.8%
same,RBC,[3],605.8 x10_4/ul
same,Ret,[3],10.2%
same,WBC,[3],98.6 x10_2/uL
same,KIDNEY_L,[3],0.9 g
same,KIDNEY_R,[3],0.9 g
same,KIDNEY_TOTAL,[3],1.8 g
same,LIVER,[3],8 g
same,ALP,[3],881.6 IU/L
same,ALT,[3],33.4 IU/L
same,AST,[3],73.2 IU/L
same,CRE,[3],0.5 mg/dL
same,Ca,[3],10.1 mg/dL
same,Cl,[3],107.6 meq/L
same,DBIL,[3],0.084 mg/dL
same,GLC,[3],200.2 mg/dL
same,IP,[3],10.4 mg/dL
same,K,[3],4.9 meq/L
same,LDH,[3],80.2 IU/L
same,Na,[3],140 meq/L
same,PL,[3],127.2 mg/dL
same,RALB,[3],3.6 g/dL
same,TBIL,[3],0.4 mg/dL
same,TC,[3],73.2 mg/dL
same,TG,[3],21.2 mg/dL
same,TP,[3],5.1 g/dL
same,gamma-GTP,[3],1.6 IU/L
same,TERMINAL_BW,[4],212.6 g
same,APTT,[4],17.5 s
same,Bas,[4],0%
same,Eos,[4],1.2%
same,Fbg,[4],207.4 mg/dL
same,Hb,[4],13.2 g/dL
same,Lym,[4],76.6%
same,MCH,[4],21.9 pg
same,MCHC,[4],33.7%
same,MCV,[4],64.9 fL
same,Mono,[4],9.4%
same,RBC,[4],602.2 x10_4/ul
same,Ret,[4],12.5%
same,WBC,[4],91.9 x10_2/uL
same,KIDNEY_L,[4],1 g
same,KIDNEY_R,[4],1 g
same,KIDNEY_TOTAL,[4],2 g
same,LIVER,[4],10.2 g
same,ALP,[4],993.6 IU/L
same,ALT,[4],33.8 IU/L
same,AST,[4],63.8 IU/L
same,CRE,[4],0.5 mg/dL
same,Ca,[4],10.9 mg/dL
same,Cl,[4],105.6 meq/L
same,DBIL,[4],0.012 mg/dL
same,GLC,[4],198.4 mg/dL
same,IP,[4],8 mg/dL
same,K,[4],4.7 meq/L
same,LDH,[4],80.6 IU/L
same,Na,[4],141.6 meq/L
same,PL,[4],144.2 mg/dL
same,RALB,[4],3.7 g/dL
same,TBIL,[4],0.4 mg/dL
same,TC,[4],73.8 mg/dL
same,TG,[4],91.6 mg/dL
same,TP,[4],5.5 g/dL
same,gamma-GTP,[4],1.8 IU/L
same,TERMINAL_BW,"25 mg/kg, 3 h, dose level Low",196.9 g
same,APTT,"25 mg/kg, 3 h, dose level Low",16.9 s
